Assay [1] has as its target T1, Endothelin-converting enzyme 2 (Homo sapiens, UniProt P0DPD6).
T1 sequence (P0DPD6 whole entry): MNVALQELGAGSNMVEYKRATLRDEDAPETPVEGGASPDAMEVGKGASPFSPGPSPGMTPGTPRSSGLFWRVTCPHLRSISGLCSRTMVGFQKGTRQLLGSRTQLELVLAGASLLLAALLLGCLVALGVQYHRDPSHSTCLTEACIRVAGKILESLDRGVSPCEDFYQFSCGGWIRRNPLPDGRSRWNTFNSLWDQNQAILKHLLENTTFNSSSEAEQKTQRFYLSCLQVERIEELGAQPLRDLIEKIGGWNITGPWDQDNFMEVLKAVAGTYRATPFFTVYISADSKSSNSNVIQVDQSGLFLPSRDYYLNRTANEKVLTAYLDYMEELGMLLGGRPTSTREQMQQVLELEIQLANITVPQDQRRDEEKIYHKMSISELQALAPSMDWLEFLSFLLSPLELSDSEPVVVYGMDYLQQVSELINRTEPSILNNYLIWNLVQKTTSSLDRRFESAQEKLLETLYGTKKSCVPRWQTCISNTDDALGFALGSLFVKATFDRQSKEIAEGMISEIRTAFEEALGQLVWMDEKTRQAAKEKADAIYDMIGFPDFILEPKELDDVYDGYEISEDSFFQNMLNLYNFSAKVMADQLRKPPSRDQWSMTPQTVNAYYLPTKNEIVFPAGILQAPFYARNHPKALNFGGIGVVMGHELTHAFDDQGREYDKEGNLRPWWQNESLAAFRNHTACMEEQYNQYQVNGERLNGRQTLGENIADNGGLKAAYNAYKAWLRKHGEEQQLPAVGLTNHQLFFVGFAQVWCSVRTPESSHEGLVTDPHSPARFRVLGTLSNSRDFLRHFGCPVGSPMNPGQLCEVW
Description: Reduction of recombinant ECE2 activity measured by McaBk2 fluorescent substrate hydrolysis.

In a further assay the target is Neprilysin (Homo sapiens, UniProt P08473). Description: Inhibition of Neprilysin.
Sequence of Neprilysin (P08473 whole entry): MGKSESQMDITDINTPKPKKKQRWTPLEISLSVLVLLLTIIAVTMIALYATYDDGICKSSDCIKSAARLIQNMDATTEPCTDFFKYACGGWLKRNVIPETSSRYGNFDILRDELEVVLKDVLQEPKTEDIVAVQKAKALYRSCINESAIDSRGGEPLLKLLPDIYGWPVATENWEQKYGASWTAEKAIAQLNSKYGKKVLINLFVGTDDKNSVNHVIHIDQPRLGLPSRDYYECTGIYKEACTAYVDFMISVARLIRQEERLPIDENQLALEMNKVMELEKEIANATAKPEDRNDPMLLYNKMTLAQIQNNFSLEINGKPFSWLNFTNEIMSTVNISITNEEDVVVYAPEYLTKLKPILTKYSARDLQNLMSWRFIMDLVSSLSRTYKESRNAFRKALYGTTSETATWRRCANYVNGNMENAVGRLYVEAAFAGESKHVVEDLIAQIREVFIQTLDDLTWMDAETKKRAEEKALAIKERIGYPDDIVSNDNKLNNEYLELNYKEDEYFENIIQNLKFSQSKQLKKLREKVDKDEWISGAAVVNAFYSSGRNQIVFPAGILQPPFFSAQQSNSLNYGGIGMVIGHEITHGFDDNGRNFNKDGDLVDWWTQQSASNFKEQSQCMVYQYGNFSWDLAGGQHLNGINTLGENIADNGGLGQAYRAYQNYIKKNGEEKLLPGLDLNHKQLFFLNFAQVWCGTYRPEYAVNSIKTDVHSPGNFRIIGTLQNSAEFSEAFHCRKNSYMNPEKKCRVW
The target of assay [2] is T2, Endothelin-converting enzyme 2 (Homo sapiens) (UniProt P0DPD6).
T2 sequence (whole entry): T1 sequence (P0DPD6 whole entry)
Nature of the assay: Reduction of recombinant ECE2 activity measured by McaBk2 fluorescent substrate hydrolysis at 10 uM. Set-up: scale not given: the % may be the effect or the level left.

Molecules are shown by their SMILES.

As usually defined, the IC50 is the concentration at which inhibition is half-maximal.

Consider `O=C(Cc1ccc2nccnc2c1)N1CCCC1`, for which the IC50 in assay [1] was 5.83 µM; against Neprilysin it was greater than 50 µM. For the same molecule, the Activity in assay [2] was greater than 70%.

For `COc1cccc(/C=C/c2ccc3cccc(O)c3n2)c1`, the IC50 in assay [1] worked out at 35.7 µM.

For `COc1cccc(/C=C/c2ccc3cccc(O)c3n2)c1O`, in assay [1], the IC50 came out at 32.9 µM.

As to `Oc1ccccc1/C=C/c1ccc2ccccc2n1`, the values for the IC50 (in assay [1]; on Neprilysin) were 6.42 µM and greater than 100 µM, respectively. Besides, the Activity in assay [2] is greater than 70%.

`Oc1ccccc1/C=C\c1ccc2ccccc2n1`: the IC50 in assay [1] was 4.63 µM.

(Values after ChEMBL document CHEMBL1150762, “Homology modeling and site-directed mutagenesis to identify selective inhibitors of endothelin-converting enzyme-2” (J Med Chem, 2008).)
